Source: patent US20250345362A1, “MULTI-IONIC COMPLEX FOR THE PREVENTION OR TREATMENT OF INFLAMMATION” (YNIOS PHARMA, priority 2022, published 2025)

What was measured:
sensory neurons [1] = experiment: Myelinated sensory neurons with or without cisplatin: neuron count, neurite length, myelin sheath length (Examples 7 and 8a, curative protocol); assay type: cell-based, rat; details: without cisplatin (healthy cells), Table 2
IL-18 = IL-18 in supernatant of LPS-stimulated human mononuclear blood cells; assay type: cell-based; details: for Results IL-18 (percentage relative to the vehicle): 2 h pretreatment, LPS 100 ng/mL 6 h; for reduction of IL-18 levels, in words: LPS 100 ng/mL, FIG. 7-9
Procedure: (§1) Methods: Mononuclear blood cells are isolated from the blood of healthy donors through Ficoll density gradient (Ficoll-Paque PLUS; GE Healthcare; 11778538) with density gradient centrifuge tubes (SepMate; StemCell Technologies; 85450). The mononuclear blood cells are deposited (200000 cells per well) in 96-well plates, pretreated either with the vehicle (0.179% PBS) or with a composition according to the invention or ions alone (see Table 6) for 2 hours, then stimulated for 6 hours without (vehicle 0.002% H2O) or with lipopolysaccharides (LPS at 100 ng/mL; Invivogen, tlrl-b5lps) at 37° C., 5% C02 in an RPMI medium containing 10% fetal calf serum and 1% penicillin/streptomycin. After 6 hours of incubation, the culture supernatant is collected and stored at −20° C. until cytokine analysis. The level of cytokines (IL-1β and IL-18) is quantified in the culture supernatant by ELISA according to the manufacturer's instructions (R&D Systems; DY201, DY318-05). Table 6 summarizes the percentage of IL-1β and IL-18 cytokines measured for each condition relative to the vehicle (ns: not significant)

IL-1β = IL-1β in supernatant of LPS-stimulated human mononuclear blood cells; assay type: cell-based; details: for Results IL-1β (percentage relative to the vehicle): 2 h pretreatment, LPS 100 ng/mL 6 h; for reduction of IL-1β levels, in words: LPS 100 ng/mL, FIG. 7-9
Procedure: as §1

sensory neurons [2] = experiment: Myelinated sensory neurons with or without cisplatin: neuron count, neurite length, myelin sheath length (Examples 7 and 8a, curative protocol); assay type: cell-based, rat; details: for Average percentage of neurite length relative to control / Average percentage of sensory neuron count relative to control: isolated ions + cisplatin (12 μM, 24 h), Table 3
Procedure: Female rats with 15 days gestation were killed by cervical dislocation (Wistar rats; January Lab) and fetuses were removed from the uterus. Embryonic DRGs were collected and placed in an icy medium of Leibovitz 15 (L15; PanBiotech, Ref P04-27055, Batch: 5331021) containing 2% Penicillin-Streptomycin (PS; PanBiotech, ref: P06-07100, Batch: 9300621) and 1% bovine serum albumin (BSA; PanBiotech, ref: P06-1391100, lot: H210207). DRG were dissociated by trypsinization for 20 minutes (min) at 37° C. (Trypsin EDTA 1X; PanBiotech, Ref: P10-023100, Batch: 8600621). The reaction was halted by the addition of Dulbecco's modified Eagle medium (DMEM; PanBiotech, Ref: P04-03600, Batch: 1130721) containing DNase I grade II (0.1 mg/ml; PanBiotech, Ref: P60-37780100, Batch: H181015) and 10% fetal calf serum (FCS; Invitrogen, ref: 10270106, lot: 2319479). The cells were then mechanically dissociated by 3 passes through a 10 ml pipette. The cells were then centrifuged at 180×g for 10 min at +4° C. on a layer of BSA (3.5%) in medium L15. The supernatant was discarded and the cell pellets were resuspended in a defined culture medium consisting of Neurobasal (Invitrogen, Ref: 21103049, Batch: 2348949) supplemented with 2% B27; (Invitrogen, ref: 17504-044, Batch: 2336991), L-glutamine (2 mM; PanBiotech, Ref: P04-80100, Batch: 2770620), 2% PS and 50 ng/mL NGF (Sigma, Ref: N1408, Lot: SLCG2596). The viable cells were then counted in a Neubauer cytometer using the trypan blue exclusion test. The cells were seeded to a density of 12000 cells/wells in 96-well plates (pre-coated with poly-D-lysine; Greiner, Ref: 655940, Lot: E200933A) and were grown at 37° C. in humidified air (95%/CO2 (5%) atmosphere. Half of the middle was changed every 2 days with fresh medium. The cells are maintained for 7 days to allow the proliferation of Schwann cells and sensory neurons. On day 8, the medium is supplemented with 50 μg/mL of ascorbic acid (AA; Sigma, Ref 092902, Batch: 05316HJ-438) to initiate the differentiation of basal Schwann cells into myelinating Schwann cells.
Cis-diammineplatinum(II) dichloride (cisplatin; Sigma, ref: P4394, lot: MKCN8054) was reconstituted in DMSO at 24 mM (stock solution). The control environment was prepared under the same conditions. After 12 days of culture with AA, the primary sensory neurons were pretreated for 2 hours with the compositions of Example 1 or with a reference compound (NGF, 50 ng/ML) and then intoxicated with cisplatin. The cisplatin preparation was used on neurons at a final concentration of 12 μM diluted in control medium for 24 hours of incubation.
In parallel, the effect of isolated or combined ions two by two on the survival of sensory neurons and the length of neurites was also evaluated under the same conditions. The solutions are all prepared from chlorides of the ions tested.
The effect of ion combinations on sensory neuron survival and neurite length was evaluated under the same conditions as described above. The solutions are all prepared from chlorides of the ions tested.

[3] = rats; cited from earlier work
sensory neurons [4] = experiment: Myelinated sensory neurons with or without cisplatin: survival, neurite length, myelin sheath length (Example 8b, protection protocol); assay type: cell-based, rat; details: cisplatin 12 μM, 24 hours
Procedure: The primary endpoint was the measurement of sensory neurons survival, the assessment of neurite length and myelin sheath length of sensory neurons after cisplatin intoxication and without intoxication.
Cis-diammineplatinum (II) dichloride (cisplatin; Sigma, ref: P4394, lot: MKCL0026) was reconstituted in medium at 10 mg/ml (stock solution). The control environment was prepared under the same conditions. After 12 days of culture with AA, primary sensory neurons were pretreated for 2 hours with a 3-concentration multi-ionic complex and then intoxicated with cisplatin. The cisplatin preparation was used on neurons at a final concentration of 12 μM diluted in control medium for 24 hours of incubation.
The concentrations of the multi-ionic complex were: • 1. TA6496: Li 10.37 mmol/kg, Mg 2.27 mmol/kg, K 16.88 mmol/kg • 2. TA6440: Li 5.76 mmol/kg, Mg 1.26 mmol/kg, K 9.38 mmol/kg • 3. TA6415: Li 1.73 mmol/kg, Mg 0.38 mmol/kg, K 2.81 mmol/kg
The following conditions were assessed: • Control medium • Control+cisplatin (12 μM, 24h) • Multi-ionic complex, at 3 different concentrations TA6496, TA6440 or TA6415+cisplatin (12 μM, 24h) • Multi-ionic complex, at 3 different concentrations TA6496, TA6440 or TA6415.
This study was performed with 6 wells per condition and duplicated for validation of results. The data included and analysed are the combined results of the 2 studies. […]

SMILES	Average percentage of neurite length relative to control (sensory neurons [1]) [%]	Average percentage of sensory neuron count relative to control (sensory neurons [1]) [%]	Results IL-18 (percentage relative to the vehicle) (IL-18; listed as K - 660 mg/L) [%]	Results IL-18 (percentage relative to the vehicle) (IL-18; listed as K - 880 mg/L) [%]	reduction of IL-18 levels, in words (IL-18)	Results IL-1β (percentage relative to the vehicle) (IL-1β; listed as K - 660 mg/L) [%]	Results IL-1β (percentage relative to the vehicle) (IL-1β; listed as K - 880 mg/L) [%]	reduction of IL-1β levels, in words (IL-1β)	Average percentage of neurite length relative to control (sensory neurons [2]) [%]	Average percentage of sensory neuron count relative to control (sensory neurons [2]) [%]	intravenous lethal dose 50 (LD50) over 24 hours [3] [mg/kg]	effect on myelin sheath length, in words (sensory neurons [4])	effect on neurite length, in words (sensory neurons [2]; cisplatin 12 μM, 24 h)	effect on survival of sensory neurons (cisplatin-induced apoptosis), in words (sensory neurons [2]; cisplatin 12 μM, 24 h)	Results IL-18 (percentage relative to the vehicle) (IL-18; listed as Mg - 55.4 mg/L) [%]	Results IL-18 (percentage relative to the vehicle) (IL-18; listed as Mg - 73.9 mg/L) [%]	Results IL-1β (percentage relative to the vehicle) (IL-1β; listed as Mg - 55.4 mg/L) [%]	Results IL-1β (percentage relative to the vehicle) (IL-1β; listed as Mg - 73.9 mg/L) [%]
[Cl-].[K+] [K, potassium chloride]	115	117	72.48	69.71	Neither magnesium, lithium, nor potassium, alone, demonstrated significant reductions	80.52	85.31	Neither magnesium, lithium, nor potassium, alone, demonstrated significant reductions	91	58	142							
[Mn+2] [Manganese]												without demonstrating any significant effect	without demonstrating any significant effect	without demonstrating any significant effect				
[Cl-].[Cl-].[Mg+2] [Mg, magnesium chloride]	98	108			Neither magnesium, lithium, nor potassium, alone, demonstrated significant reductions			Neither magnesium, lithium, nor potassium, alone, demonstrated significant reductions	73	68					102.41	95.28	100.91	97.41
